SMILES strings stand for the structures.

The assay concerns the target T1, Macrophage migration inhibitory factor (Homo sapiens) (UniProt P14174).
T1 sequence (whole entry): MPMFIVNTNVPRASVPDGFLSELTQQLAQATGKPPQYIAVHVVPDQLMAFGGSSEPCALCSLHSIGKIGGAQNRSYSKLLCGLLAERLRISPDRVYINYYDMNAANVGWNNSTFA
Kind of assay: LYTAC activity at ASGPR/MIF (unknown origin) by cell based assay.

With `CC(=O)N[C@H]1[C@H](OCCOCCOCCNC(=O)CCOCC(COCCC(=O)NCCOCCOCCO[C@@H]2O[C@H](CO)[C@H](O)[C@H](O)[C@H]2NC(C)=O)(COCCC(=O)NCCOCCOCCO[C@@H]2O[C@H](CO)[C@H](O)[C@H](O)[C@H]2NC(C)=O)NC(=O)CNC(=O)CCCOc2ccc3nc(-c4cn(-c5ccc(O)c(F)c5)nn4)ccc3c2)O[C@H](CO)[C@H](O)[C@@H]1O`, the Activity is greater than 1 µM.

Source of the values: ChEMBL document CHEMBL5120891, “Beyond Proteolysis-Targeting Chimeric Molecules: Designing Heterobifunctional Molecules Based on Functional Effectors” (J Med Chem, 2022).
